The source of these data is ChEMBL document CHEMBL4321825, “Discovery of a Series of 5-Azaquinazolines as Orally Efficacious IRAK4 Inhibitors Targeting MyD88L265P Mutant Diffuse Large B Cell Lymphoma” (J Med Chem, 2019).

Data set [1] can be described thus: Intrinsic clearance in human hepatocytes assessed per million cells. The format is ADME, cell-based, Hepatocyte. Conditions: read-out: CLH.
Data set [2] can be described thus: Intrinsic permeability in human Caco2 cells. The format is ADME, cell-based. Conditions: Caco-2.
Data set [3] is described as follows: Efflux ratio in human Caco2 cells. Type of data set: ADME, cell-based. The settings on record: Caco-2. For orientation: Caco-2 monolayers are a common model of the intestinal barrier.
The nature of data set [4]: Clearance in rat at 0.5 mg/kg, iv. Type of data set: ADME, organism-based. The settings on record: in vivo.
Data set [5] has as its target T1, Interleukin-1 receptor-associated kinase 4 (Homo sapiens, UniProt Q9NWZ3).
T1 sequence (Q9NWZ3 whole entry): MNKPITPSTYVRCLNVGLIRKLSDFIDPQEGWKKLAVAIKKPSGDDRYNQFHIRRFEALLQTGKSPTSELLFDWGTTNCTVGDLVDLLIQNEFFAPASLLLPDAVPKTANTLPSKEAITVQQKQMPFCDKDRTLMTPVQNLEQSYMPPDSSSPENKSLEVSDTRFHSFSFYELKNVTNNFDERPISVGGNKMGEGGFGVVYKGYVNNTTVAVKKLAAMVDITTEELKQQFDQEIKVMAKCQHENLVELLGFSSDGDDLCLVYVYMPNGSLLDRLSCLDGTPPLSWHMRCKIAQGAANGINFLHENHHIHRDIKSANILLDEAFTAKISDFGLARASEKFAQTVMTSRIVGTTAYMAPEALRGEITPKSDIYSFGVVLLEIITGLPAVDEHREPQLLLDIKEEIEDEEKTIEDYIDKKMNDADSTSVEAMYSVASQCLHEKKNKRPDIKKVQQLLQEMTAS
Kind of data set: Inhibition of IRAK4 (unknown origin) in presence of 5 mM ATP by enzymatic assay.

Data set [6] addresses T1, Interleukin-1 receptor-associated kinase 4. Kind of data set: Inhibition of IRAK4 (unknown origin) by cell based assay.
A short description of data set [7]: Intrinsic clearance in rat hepatocytes assessed per million cells. The format is ADME, cell-based, Hepatocyte. The settings on record: read-out: CLH.
Data set [8] in a line: Lipophilicity, logD of the compound at pH 7.4 by shake-flask assay. The format is physicochemical. Conditions: buffer.
The nature of data set [9]: Oral bioavailability in rat at 1 mg/kg. Type of data set: ADME, organism-based. The settings on record: in vivo.

Where only a bound is given, the exact number is not on record here.

With `CC(=O)N1CCN([C@H]2CC[C@H](Nc3nc(Nc4cnn(C)c4)nc4ccc(C#N)cc34)CC2)CC1`, the hepatocyte CLint in [1] is < 1 µL/min/1e6 cells; in [7], 3.2 µL/min/1e6 cells. Further, the apparent permeability coefficient (Papp) in data set [2] is < 0.2 ×10⁻⁶ cm/s. Moreover, the efflux ratio in data set [3] turned out to be 323. Moreover, the clearance in data set [4] amounted to 17 mL/min/kg. Also, the figures for the 50% inhibitory concentration (IC50) in data set [5] and in [6] were 1 nM and 400 nM, respectively. Moreover, in data set [8], the logD turned out to be 2.3.
With `Cn1cc(Nc2nc(N[C@H]3CC[C@H](N4CCOCC4)CC3)c3cc(C#N)ccc3n2)cn1`, the hepatocyte CLint is < 1 µL/min/1e6 cells in [1] and 18 µL/min/1e6 cells in data set [7]. Also, the efflux ratio in [3] came to 94. Further, in data set [4], the clearance was found to be 31 mL/min/kg. Besides, the IC50 in data set [5] was found to be 2 nM; in [6] it was 59 nM. Further, the bioavailability in data set [9] was determined as 5%. Moreover, in data set [8], the logD was found to be 2.6.
Turning to `N#Cc1ccc2ncnc(N[C@H]3CC[C@H](N4CCOCC4)CC3)c2c1`, the hepatocyte CLint in [1] is < 1.2 µL/min/1e6 cells; in data set [7] it was 3.4 µL/min/1e6 cells. Besides, the Papp in data set [2] amounted to 18 ×10⁻⁶ cm/s. For the same compound, in data set [3], the efflux ratio is 1.6. In data set [4], this compound came in with a clearance of 20 mL/min/kg. Also, the values for the half-inhibitory concentration (IC50) in data set [5] and in data set [6] were 46 nM and 250 nM, respectively. Besides, the bioavailability in data set [9] was found to be 29%. In [8], the log distribution coefficient (logD) was found to be 1.6.
On to `COC(=O)N1CCN([C@H]2CC[C@H](Nc3nc(Nc4cnn(C)c4)nc4ccc(C)nc34)CC2)CC1`, for which the hepatocyte CLint in data set [1] amounted to 13 µL/min/1e6 cells; in data set [7], 10 µL/min/1e6 cells. Moreover, the Papp in data set [2] is 7.9 ×10⁻⁶ cm/s. Further, in data set [3], the efflux ratio turned out to be 0.9. Also, the values for the IC50 in data set [5] and in data set [6] were 9 nM and 140 nM, respectively. Besides, the logD in data set [8] is 2.6.
On to `COC(=O)N1CCN([C@H]2CC[C@H](Nc3ncnc4ccc(C)cc34)CC2)CC1`, for which the hepatocyte CLint is < 1 µL/min/1e6 cells in [1] and 10 µL/min/1e6 cells in [7]. The compound further registered an apparent permeability (Papp) in data set [2] of 28 ×10⁻⁶ cm/s. Moreover, the efflux ratio in [3] turned out to be 0.7. Besides, the values for the IC50 in data set [5] and in data set [6] were 38 nM and 200 nM, respectively. In [8], this compound displayed a logD of 2.5.
`CC(=O)N1CCN([C@H]2CC[C@H](Nc3ncnc4ccc(C#N)cc34)CC2)CC1`: the hepatocyte CLint in data set [1] and in data set [7] was < 1 µL/min/1e6 cells each time. This compound showed an apparent permeability (Papp) in data set [2] of 4.2 ×10⁻⁶ cm/s. For the same compound, the efflux ratio in data set [3] was determined as 19. This compound also displayed a clearance in data set [4] of 19 mL/min/kg. The half-maximal inhibitory concentration (IC50) worked out at 122 nM in [5] and 420 nM in data set [6]. Further, the logD in data set [8] was determined as 1.4.
`COC(=O)N1CCN([C@H]2CC[C@H](Nc3nc(Nc4cnn(C)c4)nc4ccc(C(C)(C)C#N)nc34)CC2)CC1`: the IC50 is 69 nM in data set [5] and 1600 nM in data set [6]. Besides, in data set [7], the hepatocyte CLint was 18 µL/min/1e6 cells. Also, the pH-dependent lipophilicity (logD) in [8] was 3.
As for `COC(=O)N1CCN([C@H]2CC[C@H](Nc3nc(Nc4cnn(C)c4)nc4ccc(C5(C#N)CC5)nc34)CC2)CC1`, the hepatocyte CLint is 4 µL/min/1e6 cells in [1] and 7.3 µL/min/1e6 cells in data set [7]. Moreover, the IC50 in data set [5] worked out at 17 nM; in data set [6], 61 nM. In data set [8], this compound showed a log distribution coefficient (logD) of 3.2.
`COC(=O)N1CCN([C@H]2CC[C@H](Nc3nc(Nc4cnn(C)c4)nc4ccc(C#N)nc34)CC2)CC1`: the IC50 in data set [5] turned out to be 5 nM; in data set [6], 48 nM. Further, the hepatocyte CLint in [7] is 2.6 µL/min/1e6 cells. For the same compound, in data set [8], the logD was 2.7.
In the same order, the values of `COC(=O)N1CCN([C@H]2CC[C@H](Nc3nc(Nc4cnn(C)c4)nc4ccc(C(C)C#N)nc34)CC2)CC1` (stereo not given in full) are 6 nM, 130 nM, 26 µL/min/1e6 cells and 2.8.
As for `COC(=O)N1CCN([C@H]2CC[C@H](Nc3nc(Nc4cnn(C)c4)nc4ccc(C#N)cc34)CC2)CC1`, the values for the hepatocyte CLint in data set [1] and in data set [7] were < 1 µL/min/1e6 cells and 5.4 µL/min/1e6 cells, respectively. In [2], the apparent permeability coefficient (Papp) stood at 3 ×10⁻⁶ cm/s. For the same compound, in [3], the efflux ratio was 46. Besides, the clearance in data set [4] was determined as 11 mL/min/kg. For the same compound, the half-maximal inhibitory concentration (IC50) in data set [5] stood at 1 nM; in data set [6], 34 nM. This compound also came in with a bioavailability in [9] of 10%. The same compound had a log distribution coefficient (logD) in [8] of 3.2.
Consider `COC(=O)N1CCN([C@H]2CC[C@H](Nc3ncnc4ccc(C)nc34)CC2)CC1`, for which the hepatocyte CLint in [1] is < 1 µL/min/1e6 cells; in data set [7] it was 5.2 µL/min/1e6 cells. In [2], this compound returned a Papp of 35 ×10⁻⁶ cm/s. In addition, in data set [3], the efflux ratio came out at 0.8. Also, the IC50 came to 279 nM in [5] and 840 nM in [6]. The pH-dependent lipophilicity (logD) in data set [8] was 2.

A word on the Papp: it is the rate of passage across a membrane or cell layer, normalised by area and donor concentration. Read a low Papp as poor permeation. What is called efflux ratio is the permeability from basolateral to apical divided by that in the opposite direction, in the common usage. What is called clearance is the rate of elimination divided by the concentration. For orientation: IC50 means the concentration that gives 50% inhibition. What is called logD is lipophilicity at a set pH, counting ionised and neutral species. Low readings indicate lower lipophilicity, high ones higher lipophilicity. One may read the bioavailability as dose-corrected exposure relative to a reference, in per cent.
